This note sets out measurements from ChEMBL document CHEMBL1201862, “PubChem BioAssay data set” (2004).

A short description of test [1]: HeLa cell cytotoxicity, dose response, cytotoxicity control for MgcRacGAP inhibitor project (AID 624300). In kind it is functional.
In a further test the test system is HeLa. In words: Cytotoxicity counterscreen assay for transcriptional activators of heat shock protein 70 (Hsp70). [Related pubchem assays: 1203, 1252 ]. It is filed as functional. The following applies: Homo sapiens. On the technique in general: A counterscreen serves to expose hits that act by an unwanted route or on another target.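 Note: cells exposed to compound for 16 hours before readout.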
A further test addresses X-box-binding protein 1 (Homo sapiens, UniProt P17861). It is filed as functional, Cricetulus griseus.
The test system of test [2] is Vero. Description: Vero E6 cell cytotoxicity, dose response, cytotoxicity control (AID 540298). To be noted: Chlorocebus sabaeus. It is filed as functional.
Test [3] has as its system HEK293. In words: NOD1 signaling inhibitors, primary screen, cell-based, luminescence, uHTS (AID 1578). It is filed as functional. The following applies: Homo sapiens.
Test [4] concerns the target G-protein coupled receptor 55 (Homo sapiens, UniProt Q9Y2T6). Description: GPR55 agonists via beta-arrestin recruitment, primary screen, imaging, U2OS cells, beta-arrestin-GFP redistribution (AID 1961). In kind it is functional. On the technique in general: Activated receptors often draw arrestin, which recruitment assays turn into a signal.
Test [5] is described as follows: inhibitors of intracellular T. cruzi replication, confirmation, NIH3T3 host cells, beta-gal luminescence (AID 2044).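 Note: intracellular parasites grown in NIH/3T3 mouse fibroblasts as host cells; luminescent beta-galactosidase reporter signal from transgenic T. cruzi replicating inside host cells; inhibitors lower the luminescence signal.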 In kind it is functional, cell-based.
Test [6] is described as follows: cytotoxicity toward NIH3T3 fibroblasts, dose response, counter-screen, cell-based, ATP luminescence, mouse fibroblasts (AID 2010).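 Note: cells exposed to compound for about 90 hours before reading.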 It is filed as functional.
In test [7] the test system is MDCK. In words: MDCK cell cytotoxicity, dose response, cytotoxicity control (AID 540296). It is filed as functional. The following applies: Canis lupus familiaris.
The subject of test [8] is HEK293. Description: cells. In kind it is functional, cell-based. The following applies: Homo sapiens.
The next test concerns the target Nonstructural protein 1 (Influenza A virus, UniProt Q194T2). It is filed as functional, Influenza A virus (A/California/07/2009(H1N1)).
Test [9] concerns the target Sphingosine 1-phosphate receptor 1 (Homo sapiens, UniProt P21453). It is filed as functional.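 Note: Tango beta-arrestin reporter U2OS cells stimulated with S1P near its EC80; inhibitor potency meaning antagonism of receptor activation by the natural agonist.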
Test [10] addresses T1, Rac GTPase-activating protein 1 (Homo sapiens, UniProt Q9H0H5).
T1 sequence (Q9H0H5 whole entry): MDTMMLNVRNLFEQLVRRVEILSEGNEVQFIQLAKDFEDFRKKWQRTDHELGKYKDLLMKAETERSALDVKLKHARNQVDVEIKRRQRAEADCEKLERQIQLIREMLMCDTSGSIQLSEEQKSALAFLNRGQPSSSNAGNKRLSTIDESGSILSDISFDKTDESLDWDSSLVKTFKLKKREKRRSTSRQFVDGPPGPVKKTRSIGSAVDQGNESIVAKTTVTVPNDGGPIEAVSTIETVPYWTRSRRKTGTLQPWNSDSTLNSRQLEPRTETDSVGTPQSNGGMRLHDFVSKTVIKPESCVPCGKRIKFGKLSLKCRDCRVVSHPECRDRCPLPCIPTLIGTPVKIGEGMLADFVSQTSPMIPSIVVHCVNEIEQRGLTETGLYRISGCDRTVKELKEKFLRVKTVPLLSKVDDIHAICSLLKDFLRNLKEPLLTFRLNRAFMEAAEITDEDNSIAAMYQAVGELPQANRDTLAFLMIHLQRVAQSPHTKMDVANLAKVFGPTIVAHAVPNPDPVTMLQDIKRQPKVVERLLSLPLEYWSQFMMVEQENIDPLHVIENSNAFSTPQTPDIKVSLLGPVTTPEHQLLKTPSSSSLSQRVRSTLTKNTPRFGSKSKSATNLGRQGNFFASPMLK
Description: MgcRacGAP GTPase-activating activity inhibitors, confirmation, biochemical, ADP Hunter fluorescence, primary and confirmatory (AID 624330). In kind it is functional.

Test [11] deals with HEK293. In words: NOD2 signaling inhibitors in MDP-stimulated cells, cell-based, uHTS, luminescence (AID 2001). It is filed as functional. To be noted: Homo sapiens.
Test [12] has as its target Neurotensin receptor type 1 (Homo sapiens, UniProt P30989). In kind it is functional.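 Note: Image-based confirmatory dose-response assay measuring agonist activity at NTR1; NTR1-expressing U2OS osteosarcoma cells imaged for beta-arrestin GFP spot formation; agonist potency where compounds increase beta-arrestin recruitment.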
The target in test [13] is T2, Sphingosine 1-phosphate receptor 4 (Homo sapiens, UniProt O95977).
T2 sequence (O95977 whole entry): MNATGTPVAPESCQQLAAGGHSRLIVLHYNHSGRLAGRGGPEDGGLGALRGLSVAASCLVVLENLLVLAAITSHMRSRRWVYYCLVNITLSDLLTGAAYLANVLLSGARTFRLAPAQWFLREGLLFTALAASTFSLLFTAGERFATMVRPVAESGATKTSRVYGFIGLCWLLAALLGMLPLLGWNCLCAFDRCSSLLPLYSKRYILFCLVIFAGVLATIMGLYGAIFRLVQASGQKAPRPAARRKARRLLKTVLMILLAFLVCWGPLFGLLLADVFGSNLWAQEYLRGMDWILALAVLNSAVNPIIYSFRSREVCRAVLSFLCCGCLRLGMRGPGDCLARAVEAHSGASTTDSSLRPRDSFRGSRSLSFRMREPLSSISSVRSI
Description: Fluorescence dose response cell-based high throughput screening assay for antagonists of the Sphingosine 1-Phosphate Receptor 4 (S1P4). [Related pubchem assays: 1524 (Confirmation in triplicates.), 1510 (Primary screen.)]. In kind it is functional.

Test [14] deals with MDCK. Description: antiviral activity against H1N1 influenza, dose response, cell-based, strain KY136 (AID 540257). To be noted: Canis lupus familiaris. In kind it is functional.
Test [15] relates to HEK293. Description: cells. It is filed as functional, cell-based. To be noted: Homo sapiens. This is another data set of the same source.
The target of test [16] is G-protein coupled receptor 35 (Homo sapiens, UniProt Q9HC97). Description: GPR35 antagonists blocking zaprinast-driven arrestin recruitment, primary screen, imaging, U2OS, beta-arrestin-GFP, zaprinast agonist (AID 2058).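 Note: antagonist potency meaning inhibition of agonist-induced arrestin redistribution.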 In kind it is functional.
Test [17] concerns Vero. In words: cytotoxicity of synthesized analogs in Vero cells, SAR follow-up, cytotoxicity control for West Nile virus antiviral project, cell-based, set II (AID 2402). The following applies: Chlorocebus sabaeus. In kind it is functional.
Test [18] has as its system Vero. Description: cytotoxicity of synthesized analogs in Vero 76, SAR follow-up, cytotoxicity control for West Nile virus antiviral project, Vero 76 cells (AID 2414). In kind it is functional. The following applies: Chlorocebus sabaeus.
In test [19] the test system is Vero. In words: Vero E6 cell cytotoxicity, SAR follow-up, cytotoxicity control for West Nile virus antiviral project, synthesized analogs (AID 2244). It is filed as functional. To be noted: Chlorocebus sabaeus.
Test [20] relates to Vero. Description: West Nile virus CPE inhibition, SAR follow-up, cell-based, synthesized analogs (AID 2238). In kind it is functional. To be noted: Chlorocebus sabaeus.
Test [21] in a line: A Cell Based Assay for the Identification of Probe candidate Compounds with Anti- Venezuelan Equine Encephalitis virus. [Related pubchem assays: 2409, 2419, 1621, 2238, 2405, 2024, 2065, 2402, 2414, 1635, 1650, 2244 ]. In kind it is functional.
In test [22] the test system is Vero. Description: West Nile virus cytopathic effect inhibition, cell-based (AID 2419). In kind it is functional. To be noted: Chlorocebus sabaeus. (In general: Damage to the host cells serves as the signal in cytopathic effect assays.)
The test system of test [23] is Vero. In words: West Nile virus antiviral activity, cell-based, CPE readout (AID 1621). In kind it is functional. The following applies: Chlorocebus sabaeus.
The subject of test [24] is BJ. Description: cytotoxicity toward BJ-TERT fibroblasts, dose response, cell-based, RAS-independent, luminescence (AID 1933). In kind it is functional. To be noted: Homo sapiens.
A short description of a further test: cells. In kind it is functional, cell-based.
Test [25] is described as follows: cytotoxicity in HEK-293T cells, dose response, cytotoxicity control for TCR NF-kB inhibitor project, luminescence, T-cell screen hits (AID 489026).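 Note: cells exposed to compound about 14 hours before the viability readout.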 In kind it is functional, cell-based.
The nature of test [26]: inhibitors of SNCA 5'UTR-driven reporter translation, confirmation, H4 neuroglioma cells, luminescence (AID 1988). It is filed as functional, cell-based.
In test [27] the test system is BJ. Description: cells. It is filed as functional, cell-based. To be noted: Homo sapiens.
A short description of test [28]: Luminescence Cell-Based Dose Response HTS to Identify Inhibitors of 5'UTR Stem-Loop Driven Prion Protein mRNA Translation in H4 Neuroglioblastoma Cells. [Related pubchem assays: 1827 (Project Summary), 1813 (Primary HTS)]. It is filed as functional.
The nature of test [29]: inhibitors of SNCA 5'UTR-driven translation, confirmation, luminescence, H4 neuroglioblastoma cells, dose confirmation (AID 2454).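 Note: H4 neuroglioblastoma cells carrying an alpha-synuclein 5'UTR luciferase reporter; potency for inhibition of the luciferase signal.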 In kind it is functional, cell-based.
Test [30] deals with Disintegrin and metalloproteinase domain-containing protein 17 (Homo sapiens, UniProt P78536). In words: exosite inhibitors of ADAM17, dose response, biochemical (AID 743260).
Test [31] in a line: cytotoxicity toward DRD oncogenic fibroblasts, dose response, cell-based, non-viral oncogenic, luminescence (AID 1934). It is filed as functional. The following applies: Homo sapiens.
The subject of test [32] is BJ. Description: cytotoxicity toward BJ-TERT-LT-ST fibroblasts, dose response, cell-based, RAS-independent, luminescence (AID 1935).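 Note: BJ fibroblasts immortalized with TERT plus LT and ST oncogenes.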 It is filed as functional. The following applies: Homo sapiens.
Test [33] is described as follows: luciferase reporter signal reduction – luminescence, H4-C neuroglioblastoma cells, dose response (AID 2458).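 Note: H4 neuroglioblastoma cells stably carrying a luciferase reporter gene fusion.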 In kind it is functional, cell-based.
Test [34] is described as follows: ADAM10 protease inhibitors, dose response, selectivity assay for ADAM17 exosite inhibitor project, biochemical, FRET peptide substrate, recombinant human ADAM10 (AID 743259).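 Note: ADAM10 enzyme cleaving a FRET peptide substrate.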
The target of test [35] is T3, Eukaryotic translation initiation factor 2-alpha kinase 3 (Homo sapiens, UniProt Q9NZJ5). Description: Dose response cell-based high-throughput screening assay to measure PERK inhibition. [Related pubchem assays: 1416 ]. It is filed as functional.
Test [36] concerns the target T3, Eukaryotic translation initiation factor 2-alpha kinase 3. Description: Counterscreen assay for PERK inhibitors: Dose response cell-based high throughput screening assay to measure inhibition of PERK at 6 hours. [Related pubchem assays: 1522, 1416 ]. It is filed as functional.

SMILES strings stand for the structures. Calls of active or inactive are those of the source. Some results are limits rather than exact numbers.
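Throughout, for Absolute IC50 (XBP1): confirmatory dose-response counter-screen serving a CHOP assay.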

T3 sequence (Q9NZJ5 whole entry): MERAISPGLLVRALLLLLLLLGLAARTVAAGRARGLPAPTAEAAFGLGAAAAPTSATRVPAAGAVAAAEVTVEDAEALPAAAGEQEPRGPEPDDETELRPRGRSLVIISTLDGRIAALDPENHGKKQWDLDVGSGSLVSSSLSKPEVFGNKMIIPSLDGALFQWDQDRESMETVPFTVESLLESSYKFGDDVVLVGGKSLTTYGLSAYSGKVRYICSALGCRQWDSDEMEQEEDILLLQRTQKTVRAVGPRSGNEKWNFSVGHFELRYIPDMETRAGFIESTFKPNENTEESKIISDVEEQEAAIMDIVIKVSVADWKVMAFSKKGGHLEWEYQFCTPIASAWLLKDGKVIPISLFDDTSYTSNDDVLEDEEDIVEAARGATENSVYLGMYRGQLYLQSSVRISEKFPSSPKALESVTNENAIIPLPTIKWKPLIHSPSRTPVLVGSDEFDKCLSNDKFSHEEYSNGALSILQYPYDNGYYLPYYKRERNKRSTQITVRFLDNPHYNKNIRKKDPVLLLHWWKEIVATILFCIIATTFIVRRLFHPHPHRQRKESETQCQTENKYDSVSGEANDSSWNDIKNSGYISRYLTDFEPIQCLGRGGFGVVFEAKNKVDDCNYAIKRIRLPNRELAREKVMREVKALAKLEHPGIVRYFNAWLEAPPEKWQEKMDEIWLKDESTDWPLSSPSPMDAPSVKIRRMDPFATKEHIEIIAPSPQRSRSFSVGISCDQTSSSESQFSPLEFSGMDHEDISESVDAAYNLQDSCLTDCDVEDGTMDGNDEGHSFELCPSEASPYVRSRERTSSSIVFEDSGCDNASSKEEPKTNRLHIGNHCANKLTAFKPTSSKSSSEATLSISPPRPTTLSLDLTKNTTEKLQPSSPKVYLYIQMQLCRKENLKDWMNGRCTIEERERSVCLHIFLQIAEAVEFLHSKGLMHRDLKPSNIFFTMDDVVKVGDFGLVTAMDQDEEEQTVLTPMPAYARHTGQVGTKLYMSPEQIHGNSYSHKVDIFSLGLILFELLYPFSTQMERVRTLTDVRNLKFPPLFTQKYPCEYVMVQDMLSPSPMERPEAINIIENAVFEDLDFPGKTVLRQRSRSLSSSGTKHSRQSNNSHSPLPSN
Disintegrin and metalloproteinase domain-containing protein 17, sequence (P78536 whole entry, the tested form may be a part): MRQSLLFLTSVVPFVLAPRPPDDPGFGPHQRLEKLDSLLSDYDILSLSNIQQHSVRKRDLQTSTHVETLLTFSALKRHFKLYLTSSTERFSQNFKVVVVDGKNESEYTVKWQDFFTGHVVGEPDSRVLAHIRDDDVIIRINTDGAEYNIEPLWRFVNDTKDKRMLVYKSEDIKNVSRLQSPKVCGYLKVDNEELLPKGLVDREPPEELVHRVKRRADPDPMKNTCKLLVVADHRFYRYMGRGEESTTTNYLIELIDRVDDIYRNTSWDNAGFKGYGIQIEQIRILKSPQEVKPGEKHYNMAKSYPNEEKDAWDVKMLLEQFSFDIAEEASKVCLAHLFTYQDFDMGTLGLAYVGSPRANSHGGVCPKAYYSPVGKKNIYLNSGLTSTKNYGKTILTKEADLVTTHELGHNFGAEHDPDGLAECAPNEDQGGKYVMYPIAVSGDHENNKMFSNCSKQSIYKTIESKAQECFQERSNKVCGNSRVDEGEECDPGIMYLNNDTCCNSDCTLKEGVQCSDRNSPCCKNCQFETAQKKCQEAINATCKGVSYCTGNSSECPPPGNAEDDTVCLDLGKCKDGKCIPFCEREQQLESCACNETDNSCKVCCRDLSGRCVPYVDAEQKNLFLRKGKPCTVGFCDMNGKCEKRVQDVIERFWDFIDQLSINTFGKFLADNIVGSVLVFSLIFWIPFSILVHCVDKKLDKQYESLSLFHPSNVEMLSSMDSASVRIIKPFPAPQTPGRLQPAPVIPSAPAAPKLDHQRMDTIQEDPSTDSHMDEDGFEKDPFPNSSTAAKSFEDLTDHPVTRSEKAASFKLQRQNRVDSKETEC
Neurotensin receptor type 1, sequence (P30989 whole entry): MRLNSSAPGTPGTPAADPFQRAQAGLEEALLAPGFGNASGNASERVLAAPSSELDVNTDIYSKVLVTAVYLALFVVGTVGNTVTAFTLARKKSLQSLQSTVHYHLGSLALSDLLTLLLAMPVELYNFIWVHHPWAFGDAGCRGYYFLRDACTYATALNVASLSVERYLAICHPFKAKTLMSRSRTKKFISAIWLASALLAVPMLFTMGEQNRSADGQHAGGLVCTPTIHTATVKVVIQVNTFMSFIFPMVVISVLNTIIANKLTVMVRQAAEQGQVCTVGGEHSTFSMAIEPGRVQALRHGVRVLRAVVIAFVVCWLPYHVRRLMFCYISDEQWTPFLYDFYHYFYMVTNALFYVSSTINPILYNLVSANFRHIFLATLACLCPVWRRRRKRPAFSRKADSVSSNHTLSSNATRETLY
G-protein coupled receptor 55, sequence (Q9Y2T6 whole entry): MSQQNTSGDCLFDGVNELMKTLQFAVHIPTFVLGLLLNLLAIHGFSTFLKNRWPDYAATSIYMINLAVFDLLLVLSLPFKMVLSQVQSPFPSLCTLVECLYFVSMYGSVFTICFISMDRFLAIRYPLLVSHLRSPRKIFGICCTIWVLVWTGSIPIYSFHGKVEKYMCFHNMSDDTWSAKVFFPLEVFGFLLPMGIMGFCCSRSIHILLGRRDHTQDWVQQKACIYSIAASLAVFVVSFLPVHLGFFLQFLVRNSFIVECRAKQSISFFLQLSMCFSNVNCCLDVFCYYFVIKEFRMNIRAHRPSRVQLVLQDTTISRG
X-box-binding protein 1, sequence (P17861 whole entry): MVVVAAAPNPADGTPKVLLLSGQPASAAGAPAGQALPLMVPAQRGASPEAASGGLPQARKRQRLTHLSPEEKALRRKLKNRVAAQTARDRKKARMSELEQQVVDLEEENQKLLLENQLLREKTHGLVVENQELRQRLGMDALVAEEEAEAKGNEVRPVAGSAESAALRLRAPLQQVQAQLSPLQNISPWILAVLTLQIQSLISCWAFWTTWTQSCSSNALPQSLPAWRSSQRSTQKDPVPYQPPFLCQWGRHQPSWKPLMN
Sphingosine 1-phosphate receptor 1, sequence (P21453 whole entry): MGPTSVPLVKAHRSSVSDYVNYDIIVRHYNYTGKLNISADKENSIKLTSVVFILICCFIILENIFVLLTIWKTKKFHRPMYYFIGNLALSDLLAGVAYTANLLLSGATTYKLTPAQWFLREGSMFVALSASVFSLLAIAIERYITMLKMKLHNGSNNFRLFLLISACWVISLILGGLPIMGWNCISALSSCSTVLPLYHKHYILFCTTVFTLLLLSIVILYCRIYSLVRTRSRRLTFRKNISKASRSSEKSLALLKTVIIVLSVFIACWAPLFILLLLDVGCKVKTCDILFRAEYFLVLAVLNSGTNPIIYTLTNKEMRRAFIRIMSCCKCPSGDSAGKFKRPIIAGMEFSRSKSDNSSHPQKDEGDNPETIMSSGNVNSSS
Nonstructural protein 1, sequence (Q194T2 whole entry): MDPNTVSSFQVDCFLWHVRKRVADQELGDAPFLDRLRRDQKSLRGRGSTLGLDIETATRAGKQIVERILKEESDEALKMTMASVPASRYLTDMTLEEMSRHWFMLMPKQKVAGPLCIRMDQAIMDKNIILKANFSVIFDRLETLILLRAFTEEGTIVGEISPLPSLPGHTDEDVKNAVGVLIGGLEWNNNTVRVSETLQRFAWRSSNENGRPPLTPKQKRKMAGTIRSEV
G-protein coupled receptor 35, sequence (Q9HC97 whole entry): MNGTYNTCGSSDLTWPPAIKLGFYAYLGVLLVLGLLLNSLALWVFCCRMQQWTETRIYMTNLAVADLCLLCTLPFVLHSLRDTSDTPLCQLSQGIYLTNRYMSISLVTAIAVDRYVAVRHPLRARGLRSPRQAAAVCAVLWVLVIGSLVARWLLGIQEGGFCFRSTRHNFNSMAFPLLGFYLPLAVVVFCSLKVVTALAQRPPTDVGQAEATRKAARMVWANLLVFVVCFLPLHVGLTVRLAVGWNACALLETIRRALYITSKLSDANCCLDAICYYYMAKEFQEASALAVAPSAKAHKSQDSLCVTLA

Consider `COC(=O)c1ccc2c(c1)C(C)(C)C(/C=C/c1ccccc1O)=[N+]2C.[I-]`, for which the CC50 (commonly the concentration at which the toxic effect on the cells reaches its halfway point) in [1] is 30.9 µM (active); in the test with HeLa it was 8.49 µM (active); with Vero [2], 4.79 µM (active); in the test on MDCK [7], 5.8 µM (active). In addition, at X-box-binding protein 1, the “Absolute IC50 (XBP1)” value worked out at 10 µM. Moreover, the EC50 (usually the concentration giving half of the maximal effect) with HEK293 [3] was 7.83 µM (active); in test [4], 2.75 µM (active); in test [5], 0.584 µM (active); in [6] it was 4.69 µM (active); in test [12] it was 18.3 µM (active). The 50% inhibitory concentration (IC50) – broadly, the concentration needed to halve the response being measured – is 5.74 µM (active) in the test on HEK293 [8]; 22.7 µM (active) at Nonstructural protein 1; 4.76 µM (active) in test [9]; 21 µM (active) in [10]; 11.7 µM (inactive) in the test with HEK293 [11]; 0.798 µM (active) in test [13]. Also, the IC50 in the test with MDCK [14] is 8.58 µM (active); in the test with HEK293 [15], > 20 µM (inactive).

On to `C=CCCCCCCCCc1nnc(SCC(=O)O)[nH]1`, for which the IC50 in test [16] is 0.553 µM (active).

Regarding `CN(C)CCCN=C(S)N1CCN(c2nc(-c3ccccc3)cs2)CC1`, the figures for the 50% cytotoxic concentration (CC50) with Vero [17], with Vero [18] and with Vero [19] were 15.1 µM (active), 13.9 µM (active) and 25 µM (active), respectively. Besides, the IC50 with Vero [20] was > 20 µM (active); in test [21] it was 6.88 µM (active); in the test with Vero [22] it was > 12.5 µM (active); in the test with Vero [23], 17.5 µM (active).

As to `Cc1cc(C)c(S(=O)(=O)Nc2ccc3c4c(cccc24)CC3)c(C)c1`, the concentration for a half-maximal effect (EC50) with BJ [24] is 0.288 µM (active); in the test “cells” it was 2.97 µM (active); in test [26], < 0.1 µM (active); in the test with BJ [27] it was 2.1 µM (inconclusive); in test [28] it was 9.52 µM (active); in test [29], 1.2 µM (active). Further, the 50% effective concentration (EC50) was 0.383 µM (inconclusive) in [31], 0.246 µM (inconclusive) in the test on BJ [32] and 1.06 µM (active) in test [33]. In addition, the IC50 is > 80 µM (inactive) in test [25], > 69.5 µM (inactive) in test [30] and > 69.5 µM (inactive) in [34].

With `CCS(=O)(=O)N1CCC(C(=O)NCc2ccc(F)cc2)CC1`, the EC50 in test [35] and in test [36] was > 55.7 µM (not active) each time.
